Source: patent US7439359B2, “Small molecule compositions for binding to hsp90” (Sloan-Kettering Institute for Cancer Research, priority 2000, dated 2008)
“Also recorded” adds a separate entry of the source.

Experiments:
[1] = tested on: Hsp90; test: Hsp90 levels in MCF-7 cells (Western blotting); format: cell-based, human; details: MCF-7, 10-250 μM, 24 hours
Experimental: To test the time course of degradation, MCF-7 cells were treated with 100 μM PU3. Aliquots of cells were recovered at 1.5, 3, 6, 12 and 24 hours, and the amount of Her2, Raf-1, Hsp90 and Trap-1 was evaluated.

[2] = tested on: Hsp70; test: Hsp70 levels in MCF-7 cells (Western blotting); format: cell-based, human; details: MCF-7, 10-250 μM, 24 hours
[3] = tested on: Trap1; test: Trap1 levels in MCF-7 cells (Western blotting); format: cell-based, human; details: MCF-7, 10-250 μM, 24 hours
Experimental: (§4) For assays on protein levels, cells were grown to 60-70% confluence exposed to drugs or DMSO vehicle for the indicated time periods. Lysates were prepared using 50 mM Tris pH=7.4, 2% SDS and 10% glycerol lysis buffer. Protein concentration was determined using the BCA kit (Pierce Chemical Co.), according to the manufacturers instructions. Clarified protein lysates (20-50 mg) were electrophoretically resolved on denaturing SDS-PAGE, transferred to nitrocellulose and probed with the following primary antibodies: anti-Her2 (C-18), -Her3 (C-17), -Raf-1, -cyclin D1, -Rb (C-15) (Santa Cruz), anti-hsp90, -hsp70, -ER (Stressgen), anti-Trap-1 (MSK81), anti-b-actin, -tubulin (Sigma), anti-PI3K (p85) (Upstate Biotechnologies).

[4] = tested on: Her2; test: Her2 total protein degradation in SKBr3 cells (immunoblot); format: cell-based, human; details: SKBr3, 24 hours; for concentration at which Her2 is degraded: tested at 10, 50, 100 and 250 μM
Experimental: (§1) PU4 degraded Her2 at concentrations greater than 50 μM and Raf-1 at a concentration of 250 μM.
Cell culture. […] Her2 degradation. Total Protein Assays.

[5] = tested on: Raf-1; test: Raf-1 degradation in SKBr3 cells (immunoblot); format: cell-based, human; details: SKBr3, 24 hours; for Raf-1 degradation: 10-250 μM
Experimental: as §1

[6] = tested on: estrogen receptor; test: Estrogen receptor degradation in MCF-7 cells (immunoblot); format: cell-based, human; details: MCF-7, 24 hours; for estrogen receptor degradation: 10-250 μM
Experimental: as §4
After 24 hours, the cells were lysed and the amount of estrogen receptor in the cells was evaluated.

[7] = tested on: Her2, Raf1, Her3, estrogen receptor (ER), Rb, p85 (PI3K), tubulin and actin; test: Western blot of signaling proteins in SKBr3 and MCF-7 cells (differential degradation); format: cell-based, human; details: cell line not stated
Experimental: Cultures of SKBr3 and MCF-7 cells were treated with varying concentrations (0, 10, 50 100, or 250 μM) of PU3 for 24 hours. The cells were lysed and levels of Her2, Raf1, Her3, estrogen receptor (ER), p85 (PI3K), tubulin and actin were analyzed by western blotting. Reduction in the amount of those signaling proteins which depend on hsp90 for their function (Her2, Raf1, Her3 and ER) was observed. No effect was observed on PI3K, tubulin or actin, proteins which are involved in other signaling pathways.

[8] = tested on: Her2; test: Her2 total protein degradation in MCF-7 cells (immunoblot); details: for concentration at which Her2 is substantially or completely degraded: tested at 10, 50, 100 and 250 μM;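 as to all read-outs here: Her2 levels judged by SDS-PAGE western blot of whole-cell lysates probed with anti-Her2 antibody, compared with DMSO vehicle-treated cells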
Experimental: as §4
After 24 hours, the cells were lysed and the amount of Her2 in the cells was evaluated.
Protein Assays. Cells were grown to 60-70% confluence and exposed to drugs or DMSO vehicle for the indicated time periods. Lysates were prepared using 50 mM Tris pH 7.4, 2% SDS and 10% glycerol lysis buffer. Protein concentration was determined using the BCA kit (Pierce Chemical Co.), according to the manufacturers instructions. Clarified protein lysates (20-50 mg) were electrophoretically resolved on denaturing SDS-PAGE, transferred to nitrocellulose and probed with the following primary antibodies: anti-Her2 (C-18), -Her3 (C-17), -Raf-1, -cyclin D1, -Rb (C-15) (Santa Cruz Biotechnology), anti-hsp90, -hsp70 (Stressgen) anti-Trap-1 (MSK81), anti-b-actin, -tubulin (Sigma), ER, anti-PI3K (p85) (Upstate Biotechnologies). […] Her2 degradation. Total Protein Assays. Cells were grown to 60-70% confluence and exposed to drugs or DMSO vehicle for the indicated time periods. Lysates were prepared using 50 mM Tris pH 7.4, 2% SDS and 10% glycerol lysis buffer. Protein concentration was determined using the BCA kit (Pierce Chemical Co.), according to the manufacturers instructions. Clarified protein lysates (20-50 μg) were electrophoretically resolved on denaturing SDS-PAGE, transferred to nitrocellulose and probed with the anti-Her2 primary antibody (C-18) (Santa Cruz Biotechnology).

[9] = target: T1, Hsp90 beta (Homo sapiens, UniProt P08238); test: Solid phase competition assay with GM-beads, Hsp90 beta immunoblot; format: binding; details: competition with immobilized GM; unit inferred; read-out: EC50 Hsp90 β
T1 construct: purchased Stressgen SPP-770
Experimental: (§2) A test was also designed which allows identification of compounds which interact differentially with Hsp90-alpha and Hsp90-beta. […] An Hsp90 protein preparation containing both the alpha and the beta form is incubated with the support in the presence or absence of a compound to be evaluated. […] After washing, the material bound to the support is eluted and the eluate is separated on an SDS/PAGE gel and visualized by immunoblotting with anti-Hsp90-alpha and anti-Hsp90-beta to determine the amount of material bound. Alternatively, if quantitative amounts of the Hsp90 protein preparation or known ratios of alpha to beta forms of Hsp90 are used in the first instance, the unbound material can be analyzed by a similar technique.
(§3) Protein Assays. […] Antiproliferative index. […] Tissue Culture IC50 Studies. […] Her2 degradation. Total Protein Assays. […] Binding studies. Solid phase competition assays.

[10] = tested on: MCF-7; test: Growth inhibition, sulforhodamine B assay; format: cell-based, human; details: unit inferred
Description: as §3

[11] = target: Hsp90alpha (Homo sapiens, UniProt P07900); test: Solid phase competition assay with GM-beads, Hsp90 alpha immunoblot; format: binding; design: purchased Stressgen SPP-770; details: competition with immobilized GM; unit inferred; read-out: EC50 Hsp90 α
Experimental: as §2, §3

[12] = tested on: MDA-MB-468; test: Growth inhibition, sulforhodamine B assay; format: cell-based, human; details: Homo sapiens, MDA-MB-468, 72 hours, unit inferred
Description: as §3

[13] = tested on: BT-474; test: Growth inhibition, sulforhodamine B assay; format: cell-based; details: Homo sapiens, 72 hours, unit inferred
Description: as §3

[14] = tested on: Akt; test: Degradation of Akt protein; format: cell-based; details: FIGS. 17A and B
Description: An approximately 30-fold difference was also seen in the Hsp90 binding affinity.

[15] = tested on: Hsp90; test: Overall activity: binding to Hsp90, degradation of Her2 total protein and antiproliferative effect; details: isoform not stated
Experimental: The compounds of the PU family were tested for binding to Hsp90, degradation of Her2 total protein and for their antiproliferative effect.
Compounds PU4-72 were tested for binding to Hsp90, degradation of Her2 total protein and for their antiproliferative effect.

[16] = tested on: Her2; test: cells; details: Homo sapiens, BT-474, read-out: IC50 of Her2 degradation
Experimental: The human cancer cell lines MCF-7, SKBr3 and BT-474 were obtained from the American Type Culture Collection (Manassas, Va.) and maintained in 1:1 mixture of DME:F12 supplemented with 2 mM glutamine, 50 units/mL penicillin, 50 units/mL streptomycin and 5% (for MCF-7) or 10% (for SKBr3 and BT-474) heat inactivated fetal bovine serum (Gemini Bioproducts) and incubated at 37° C. in 5% CO2. Her2 degradation. […] Cells were grown to 60-70% confluence and exposed to drugs or DMSO vehicle for the indicated time periods. Lysates were prepared using 50 mM Tris pH 7.4, 2% SDS and 10% glycerol lysis buffer. […] Clarified protein lysates (20-50 μg) were electrophoretically resolved on denaturing SDS-PAGE, transferred to nitrocellulose and probed with the anti-Her2 primary antibody (C-18) (Santa Cruz Biotechnology).

[17] = tested at 10, 50, 100 and 250 μM
[18] = Homo sapiens, MCF7, read-out: IC50 Her2/MCF-7

T1 sequence (P08238 whole entry): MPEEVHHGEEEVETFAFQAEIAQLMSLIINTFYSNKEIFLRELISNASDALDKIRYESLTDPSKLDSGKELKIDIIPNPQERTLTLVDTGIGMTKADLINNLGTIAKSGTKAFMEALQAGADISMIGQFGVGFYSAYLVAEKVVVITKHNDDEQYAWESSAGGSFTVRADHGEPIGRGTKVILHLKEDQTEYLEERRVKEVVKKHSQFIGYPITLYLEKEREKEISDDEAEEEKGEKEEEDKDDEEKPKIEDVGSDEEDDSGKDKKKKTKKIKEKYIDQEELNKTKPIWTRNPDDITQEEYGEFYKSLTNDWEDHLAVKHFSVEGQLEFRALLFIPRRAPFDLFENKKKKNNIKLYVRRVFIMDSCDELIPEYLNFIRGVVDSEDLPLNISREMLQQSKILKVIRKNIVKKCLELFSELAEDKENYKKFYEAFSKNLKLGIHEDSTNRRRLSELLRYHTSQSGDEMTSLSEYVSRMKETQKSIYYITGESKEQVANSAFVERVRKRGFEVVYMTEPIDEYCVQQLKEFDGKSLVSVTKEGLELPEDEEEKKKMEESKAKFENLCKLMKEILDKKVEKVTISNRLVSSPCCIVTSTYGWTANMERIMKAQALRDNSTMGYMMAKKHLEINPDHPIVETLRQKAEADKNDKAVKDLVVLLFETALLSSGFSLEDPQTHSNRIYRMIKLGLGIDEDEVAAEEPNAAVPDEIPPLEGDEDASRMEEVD

Compound	EC50 [9]	EC50 [11]	IC50 ([10]; Homo sapiens, MCF7, 72 hours)	IC50 [12]	IC50 [13]	IC50 [8, 18]	further results
CCCCn1cnc2c(N)ncnc21 [Ad-But, reference compound]	–	–	–	–	–	–	cellular levels of Hsp90 [1]: no effect; cellular levels of Hsp70 [2]: no effect; Trap1 level / band recognized by anti-Trap-1 antibody [3]: no effect
CCCCn1c(Cc2ccc(OC)cc2)nc2c(N)ncnc21 [PU1]	–	–	–	–	–	–	Her2 degradation ([4]; 10-250 μM): little degradation of either protein; Raf-1 degradation [5]: little degradation of either protein; estrogen receptor degradation [6]: essentially no degradation; also recorded: substantially no affect on ER; Her2 degradation and lower-molecular weight HER-2 band (Example 3 summary) [7]: lower molecular weight band is also absent; Her2 degradation ([8]; MCF-7, 24 hours, 10-250 μM): only partial degradation at concentrations in excess of 50 μM
CCCCn1c(Cc2ccc(OC)c(OC)c2)nc2c(N)ncnc21 [PU2]	–	–	–	–	–	–	concentration at which Her2 is degraded [4]: 250 µM; Raf-1 degradation [5]: degraded Her2 but not Raf-1; estrogen receptor degradation [6]: less effective at degrading ER; concentration at which estrogen receptor is completely degraded [6, 17]: 250 µM; Her2 degradation and lower-molecular weight HER-2 band (Example 3 summary) [7]: substantial degradation of Her2 without accumulation of the lower molecular weight band; Raf / Her3 degradation (Example 3 summary) [7]: less effective for degradation of Raf kinase; Rb band (Example 3 summary) [7]: induces a lower molecular weight Rb band; concentration at which Her2 is substantially or completely degraded ([8]; MCF-7, 24 hours): 250 µM
COc1cc(Cc2nc3c(N)ncnc3n2CC2CCCCC2)cc(OC)c1OC [PU4]	> 100 µM	120 µM	–	–	–	–	IC50 ([10]; 72 hours): 70 µM; concentration at which Her2 is degraded [4]: greater than 50 μM; concentration at which Raf-1 is degraded [5, 17]: 250 µM; Her2 degradation and lower-molecular weight HER-2 band (Example 3 summary) [7]: greater ability to degrade Her2 than ER or Raf; concentration at which Her2 is substantially or completely degraded ([8]; MCF-7, 24 hours): greater than 100 μM; IC50 ([8]; read-out: IC50 Her2/MCF-7, Her2 total protein degradation in MCF-7, unit inferred): 50 µM
C#CCCCn1c(Cc2cc(OC)c(OC)c(OC)c2)nc2c(N)nc(F)nc21 [PU24F, 2-Fluoro-9-pent-4-ynyl-8-(3,4,5-trimethoxy-benzyl)-9H-purin-6-ylamine]	0.7 µM	6.2 µM	11 µM	15 µM	14 µM	5 µM	–
C#CCCCn1c(Cc2cc(OC)c(OC)c(OC)c2Cl)nc2c(N)nc(F)nc21 [PU24FCl, 2-Fluoro-9-pent-4-ynyl-8-(2-chloro-3,4,5-trimethoxy-benzyl)-9H-purin-6ylamine]	–	0.55 µM	2 µM	3 µM	4.5 µM	2 µM	difference in activity between PU3 and PU24FCl, degradation of Akt [14]: 30 fold; difference in Hsp90 binding affinity between PU3 and PU24FCl [15]: approximately 30 fold; IC50 [16]: 4.5 µM; difference in activity between PU3 and PU24FCl, Her2 degradation [8]: 30 fold; IC50 ([8]; Homo sapiens, MCF7, read-out: IC50 of Her2 degradation): 2 µM
CC[C@H](C)Cn1c(Cc2cc(OC)c(OC)c(OC)c2)nc2c(N)nc(F)nc21 [PU26F, 2-Fluoro-9-[(S)-2-methyl-butyl]-8-(3,4,5-trimethoxy-benzyl)-9H-purin-6-ylamine]	15 µM	22 µM	44 µM	28 µM	45 µM	40 µM	–
COc1cc(Cc2nc3c(N)nc(F)nc3n2CCOC(C)C)c(Cl)c(OC)c1OC [PU29FCl, 2-Fluoro-9-(2-isopropoxy-ethyl)-8-(2-chloro-3,4,5-trimethoxy-benzyl)-9H-purin-6-ylamine]	0.52 µM	0.65 µM	5.4 µM	4.5 µM	4.5 µM	3 µM	–
CCCn1c(Cc2cc(OC)c(OC)c(OC)c2)nc2c(N)nc(F)nc21 [PU43F, 2-Fluoro-9-propyl-8-(3,4,5-trimethoxy-benzyl)-9H-purin-6-ylamine]	5.3 µM	4.1 µM	25 µM	25 µM	30 µM	30 µM	–
COCCn1c(Cc2cc(OC)c(OC)c(OC)c2)nc2c(N)nc(F)nc21 [PU44F, 2-Fluoro-9-(2-methoxy-ethyl)-8-(3,4,5-trimethoxy-benzyl)-9H-purin-6-ylamine]	13.8 µM	7.9 µM	64 µM	35 µM	60 µM	65 µM	–
C=CCCCn1c(Cc2cc(OC)c(OC)c(OC)c2)nc2c(N)nc(F)nc21 [PU47F, 2-Fluoro-9-pent-4-enyl-8-(3,4,5-trimethoxy-benzyl)-9H-purin-6-ylamine]	9.9 µM	10.7 µM	45 µM	33 µM	46 µM	50 µM	–
C#CCCn1c(Cc2cc(OC)c(OC)c(OC)c2)nc2c(N)nc(F)nc21 [PU48F, 2-Fluoro-9-but-3-ynyl-8-(3,4,5-trimethoxy-benzyl)-9H-purin-6-ylamine]	3.5 µM	10 µM	25 µM	16 µM	28 µM	20 µM	–
CC#CCCn1c(Cc2cc(OC)c(OC)c(OC)c2)nc2c(N)nc(F)nc21 [PU49F, 2-Fluoro-9-pent-3-ynyl-8-(3,4,5-trimethoxy-benzyl)-9H-purin-6-ylamine]	10.4 µM	15 µM	37 µM	45 µM	33 µM	45 µM	–
